Drawing on ChEMBL document CHEMBL1145134, “Inclusion complexation and solubilization of paclitaxel by bridged bis(beta-cyclodextrin)s containing a tetraethylenepentaamino spacer” (2003), this text covers Activity for one compound.

The test system of this test is K562. As to the kind of experiment: Antiproliferative activity of the paclitaxel-TPCD complex was tested against K562 erythroleukemia after 72 hr at a concentration of 1E-6 mg/mL using MTT cytotoxicity assay. Format: functional, Homo sapiens. For orientation: Formazan colour is commonly taken as a measure of viable cells.

The structures appear in SMILES notation.

For the compound `CC(=O)O[C@H]1C(=O)[C@@]2(C)[C@H]([C@H](OC(=O)c3ccccc3)[C@]3(O)C[C@H](OC(=O)[C@H](O)[C@@H](NC(=O)c4ccccc4)c4ccccc4)C(C)=C1C3(C)C)[C@]1(OC(C)=O)CO[C@@H]1C[C@@H]2O` [PACLITAXEL], the Activity is on record as 57.7%.
